Reference: US10350206B2, “Benzyl substituted indazoles as BUB1 inhibitors” (Bayer Pharma Aktiengesellschaft, priority 2014, dated 2019)
Read-outs that look alike come from different tables or passages of the source.

Key:
[1] = tested on: HeLa human cervical tumor cells; assay: Proliferation Assay (HeLa+Paclitaxel); type: cell-based; settings: 3 nM paclitaxel, test substance 92 hours; read-out: Biological Assay 3: Proliferation Assay (HeLa + Paclitaxel) IC50
Method: Proliferation Assay (HeLa+Paclitaxel):
(§1) Cultivated HeLa human cervical tumor cells (DSMZ ACC-57) were plated at a density of 3000 cells/well in a 96-well multititer plate in 200 μL of growth medium supplemented 10% fetal calf serum. After 24 hours, the cells of one plate (zero-point plate) were stained with crystal violet (see below). The medium of the other plates was supplemented with 3 nM of paclitaxel (Sigma-Aldrich) and the cells were incubated at 37° C. After 4 hours the test substances were added in various concentrations (0 μM, as well as in the range of 0.001-10 μM; the final concentration of the solvent dimethyl sulfoxide was adjusted to 0.1%) using a Hewlett-Packard HP D300 Digital Dispenser. The cells were incubated for another 92 hours at 37° C. in the presence of test substances. […] After three washing cycles of the fixed cells with water, the plates were dried at room temperature. The cells were stained by adding 100 μL/measuring point of a 0.1% crystal violet solution (pH 3.0). After three washing cycles of the stained cells with water, the plates were dried at room temperature. The dye was dissolved by adding 100 μL/measuring point of a 10% acetic acid solution. […] The change of cell number, in percent, was calculated by normalization of the measured values to the absorption values of the zero-point plate (=0%) and the 5 absorption of the untreated (0 μm) cells (=100%). The IC50 values were determined by means of a 4 parameter fit.

[2] = tested on: HeLa human cervical tumor cells; assay: Proliferation assay (HeLa cell line); type: cell-based; settings: 96 h, 4 days incubation, crystal violet, read-out: Biological Assay 2: Proliferation assay (HeLa cell line) median IC50
Method: as §1, with “Human tumour cells were originally obtained from the American Type Culture Collection (ATCC), the Deutsche Sammlung von Mikroorganismen und Zellkulturen (DSMZ, German Collection of Microorganisms and Cell Cultures), or Epo GmbH Berlin. Cultivated” for “Cultivated”, “below), while the” for “below). The”, “with” for “with 3 nM of paclitaxel (Sigma-Aldrich) and the cells were incubated at 37° C. After 4 hours”, “substances” for “substances were added”, “4 days” for “another 92 hours at 37° C.”, “the” for “the 5”

[3] = molecular target: T1, catalytic domain of human Bub1 (amino acids 704-1085) (Homo sapiens, UniProt O43683); assay: Bub1 kinase assay (TR-FRET); type: biochemical; settings: 10 μM ATP, 60 min reaction, pH 7.5; read-out: Biological Assay 1: Bub1 kinase assay median IC50
T1 construct: catalytic domain of human Bub1 (amino acids 704-1085); His6 (N); made in house; host or cells: Hi5 insect cells
T1 sequence (O43683 704-1085): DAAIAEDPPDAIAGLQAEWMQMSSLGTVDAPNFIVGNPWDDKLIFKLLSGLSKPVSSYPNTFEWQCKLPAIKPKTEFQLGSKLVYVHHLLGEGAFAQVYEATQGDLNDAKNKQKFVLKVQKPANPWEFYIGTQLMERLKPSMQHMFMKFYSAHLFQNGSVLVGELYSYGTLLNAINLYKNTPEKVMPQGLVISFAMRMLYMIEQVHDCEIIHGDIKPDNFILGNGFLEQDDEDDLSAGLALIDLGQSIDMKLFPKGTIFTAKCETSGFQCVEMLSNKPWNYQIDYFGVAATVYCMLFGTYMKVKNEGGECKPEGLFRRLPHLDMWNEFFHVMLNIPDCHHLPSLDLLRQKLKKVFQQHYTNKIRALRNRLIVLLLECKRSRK
Method: To this end, 100-fold concentrated compound solutions (in DMSO) were previously prepared by serial dilution (1:3.4) of 2 mM stocks in a clear low volume 384-well source microtiter plate (Greiner Bio-One, Frickenhausen, Germany), from which 50 nL of compounds were transferred into a black low volume test microtiter plate from the same supplier. […] The resulting mixture (5 μL final volume) was incubated at 22° during 60 min., and the reaction was stopped by the addition of 5 μL of an aqueous EDTA-solution (50 mM EDTA, in 100 mM HEPES pH 7.5 and 0.2% (w/v) bovine serum albumin) which also contained the TR-FRET detection reagents (0.2 μM streptavidin-XL665 [Cisbio Bioassays, Codolet, France] and 1 nM anti-phosho-Serine antibody [Merck Millipore, cat. #35-001] and 0.4 nM LANCE EU-W1024 labeled anti-mouse IgG antibody [Perkin-Elmer, product no. AD0077, alternatively a Terbium-cryptate-labeled anti-mouse IgG antibody from Cisbio Bioassays can be used]). The stopped reaction mixture was further incubated 1 h at 22° C. in order to allow the formation of complexes between peptides and detection reagents. Subsequently, the amount of product was evaluated by measurement of the resonance energy transfer from the Eu-chelate-antibody complex recognizing the Phosphoserine residue to the streptavidin-XL665 bound to the biotin moiety of the peptide. […] IC50 values were calculated by fitting the normalized inhibition data to a 4-parameter logistic equation (Minimum, Maximum, IC50, Hill; Y=Max+(Min−Max)/(1+(X/IC50)Hill)).

[4] = tested on: Bub1 kinase (pre-induced phospho-histone 2A); assay: H2A Abrogation-Assay (cell-based mechanistic assay, pre-treatment with Nocodazole); settings: read-out: Biological Assay 4.2: H2A Abrogation IC50
Method: Biological Assay 4.2: Abrogation-Assay
Cell-Based Mechanistic Assay: Changes of Phosphorylation Status of Pre-Induced Phospho-Histone 2A by Inhibition of Kinase Activity of Bub1
This assay measures the inhibition of histone 2A phosphorylation, which was induced by pre-treatment of the cells with Nocodazole, by a Bub1 kinase inhibitor. 25000 cells (cells were ordered from ATCC) were seeded in 96 well plate for 5 h at 37° C. Cells were treated with Nocodazole (1 μg/ml). After 16h varying concentrations (between 3 nM and 10 μM) of test compounds were added and the cells were incubated for another 1h. Cells were fixed (20 min, Fixing solution R&D), washed three times with PBS and blocked with Odyssey blocking buffer before incubating with the primary antibody against phosphorylated H2A (5 μg/ml ABIN482721) overnight at 2-8° C. After washing, secondary IRDye-labeled antibody mix with cell stains was added for 1h and washed again with PBS. Plates were scanned with LiCor Odyssey Infrared Imager CLx at 800 nm for P-H2A and at 700 nm for cell stains Draq5/Sapphire. The quotient of 800 nm and 700 nm for Nocodazole only treated cells was set as 100% and the quotient of 800 nm and 700 nm of untreated cells was set as 0%. […] The IC50 values were determined by means of a 4 parameter fit.
Histone H2A is an immediate intracellular substrate of Bub1 kinase. Determination of the phosphorylation status of Histone H2A provides a direct measure of the intracellular activity of Bub1 kinase.

| IC50 [1] [nM] | IC50 [2] [nM] | IC50 [3] [nM] | IC50 ([4]; Nocodazole 1 μg/ml 16 h, then test compound 1 h) [nM] | IC50 [4] [nM] | SMILES |
| --- | --- | --- | --- | --- | --- |
| 120 | > 10000 | 31 |  |  | COc1cnc(-c2nn(Cc3c(F)cc(OCCO)cc3F)c3ccccc23)nc1Nc1cc(C)ncc1C [Example 2-1-8, 2-{4-[(3-{4-[(2,5-dimethylpyridin-4-yl)amino]-5-methoxypyrimidin-2-yl}-1H-indazol-1-yl)methyl]-3,5-difluorophenoxy}ethanol] |
|  |  | 13 |  |  | COc1cnc(-c2nn(Cc3c(F)cc(OCCO)cc3F)c3ccccc23)nc1Nc1ccncc1C1CC1 [Example 2-1-9, 2-{4-[(3-{4-[(3-cyclopropylpyridin-4-yl)amino]-5-methoxypyrimidin-2-yl}-1H-indazol-1-yl)methyl]-3,5-difluorophenoxy}ethanol] |
| 140 | > 10000 | 95 |  |  | COc1cnc(C)cc1Nc1nc(-c2nn(Cc3c(F)cc(OCCO)cc3F)c3ccccc23)ncc1OC [Example 2-1-19, 2-{3,5-difluoro-4-[(3-{5-methoxy-4-[(5-methoxy-2-methylpyridin-4-yl)amino]pyrimidin-2-yl}-1H-indazol-1-yl)methyl]phenoxy}ethanol] |
| 55 | 1000 | 10 | 9.8 |  | COc1cnccc1Nc1nc(-c2nn(Cc3c(F)cc(OCCCO)cc3F)c3ccccc23)ncc1OC [Example 2-3-2, 3-{3,5-difluoro-4-[(3-{5-methoxy-4-[(3-methoxypyridin-4-yl)amino]pyrimidin-2-yl}-1H-indazol-1-yl)methyl]phenoxy}propan-1-ol] |
|  |  | 37 |  |  | COc1cnc(-c2nn(Cc3c(F)cc(OCCO)cc3F)c3ccccc23)nc1Nc1cc(C)nc(C)n1 [Example 2-4-1, 2-{4-[(3-{4-[(2,6-dimethylpyrimidin-4-yl)amino]-5-methoxypyrimidin-2-yl}-1H-indazol-1-yl)methyl]-3,5-difluorophenoxy}ethanol] |
| 650 | 3300 |  |  | 3600 | COc1cnc(-c2nn(Cc3c(F)cc(OCCOC(C)=O)cc3F)c3ccccc23)nc1Nc1ccncc1 [Example 6-3-1, 2-[3,5-difluoro-4-({3-[5-methoxy-4-(pyridin-4-ylamino)pyrimidin-2-yl]-1H-indazol-1-yl}methyl)phenoxy]ethyl acetate, reference compound] |
|  |  | 21 |  |  | CCOc1cc(F)c(Cn2nc(-c3ncc(OCCOCCNC(=S)Nc4ccc(-c5c6ccc(=O)cc-6oc6cc(O)ccc56)c(C(=O)O)c4)c(Nc4ccncc4)n3)c3ccccc32)c(F)c1 [Example 6-5-1, 5-[({2-[2-({2-[1-(4-ethoxy-2,6-difluorobenzyl)-1H-indazol-3-yl]-4-(pyridin-4-ylamino)pyrimidin-5-yl}oxy)ethoxy]ethyl}carbamothioyl)amino]-2-(6-hydroxy-3-oxo-3H-xanthen-9-yl)benzoic acid, reference compound] |
